Patent publication US10758534B2 (Vertex Pharmaceuticals Incorporated, priority 2014, dated 2020)

Target: T1, F508del (Homo sapiens, UniProt P13569, DEL508-508)
T1 construct: expressed in transfected cells
Assay: Protocol 1: membrane potential optical assay (FLIPR III, voltage sensing dye), identification of potentiator compounds
Format: cell-based
Conditions: Table 3, compounds of Table 1
Outline: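 NIH3T3 F508del cells, 27° C × 24 hrs; compound/DMSO pretreat → redistribution dye load → single forskolin addition with Cl⁻ gradient (gluconate-substituted bath, HEPES pH 7.4). FLIPR III membrane-potential fluorescence read.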

T1 sequence (P13569 with tags, fused parts or gaps DEL508-508): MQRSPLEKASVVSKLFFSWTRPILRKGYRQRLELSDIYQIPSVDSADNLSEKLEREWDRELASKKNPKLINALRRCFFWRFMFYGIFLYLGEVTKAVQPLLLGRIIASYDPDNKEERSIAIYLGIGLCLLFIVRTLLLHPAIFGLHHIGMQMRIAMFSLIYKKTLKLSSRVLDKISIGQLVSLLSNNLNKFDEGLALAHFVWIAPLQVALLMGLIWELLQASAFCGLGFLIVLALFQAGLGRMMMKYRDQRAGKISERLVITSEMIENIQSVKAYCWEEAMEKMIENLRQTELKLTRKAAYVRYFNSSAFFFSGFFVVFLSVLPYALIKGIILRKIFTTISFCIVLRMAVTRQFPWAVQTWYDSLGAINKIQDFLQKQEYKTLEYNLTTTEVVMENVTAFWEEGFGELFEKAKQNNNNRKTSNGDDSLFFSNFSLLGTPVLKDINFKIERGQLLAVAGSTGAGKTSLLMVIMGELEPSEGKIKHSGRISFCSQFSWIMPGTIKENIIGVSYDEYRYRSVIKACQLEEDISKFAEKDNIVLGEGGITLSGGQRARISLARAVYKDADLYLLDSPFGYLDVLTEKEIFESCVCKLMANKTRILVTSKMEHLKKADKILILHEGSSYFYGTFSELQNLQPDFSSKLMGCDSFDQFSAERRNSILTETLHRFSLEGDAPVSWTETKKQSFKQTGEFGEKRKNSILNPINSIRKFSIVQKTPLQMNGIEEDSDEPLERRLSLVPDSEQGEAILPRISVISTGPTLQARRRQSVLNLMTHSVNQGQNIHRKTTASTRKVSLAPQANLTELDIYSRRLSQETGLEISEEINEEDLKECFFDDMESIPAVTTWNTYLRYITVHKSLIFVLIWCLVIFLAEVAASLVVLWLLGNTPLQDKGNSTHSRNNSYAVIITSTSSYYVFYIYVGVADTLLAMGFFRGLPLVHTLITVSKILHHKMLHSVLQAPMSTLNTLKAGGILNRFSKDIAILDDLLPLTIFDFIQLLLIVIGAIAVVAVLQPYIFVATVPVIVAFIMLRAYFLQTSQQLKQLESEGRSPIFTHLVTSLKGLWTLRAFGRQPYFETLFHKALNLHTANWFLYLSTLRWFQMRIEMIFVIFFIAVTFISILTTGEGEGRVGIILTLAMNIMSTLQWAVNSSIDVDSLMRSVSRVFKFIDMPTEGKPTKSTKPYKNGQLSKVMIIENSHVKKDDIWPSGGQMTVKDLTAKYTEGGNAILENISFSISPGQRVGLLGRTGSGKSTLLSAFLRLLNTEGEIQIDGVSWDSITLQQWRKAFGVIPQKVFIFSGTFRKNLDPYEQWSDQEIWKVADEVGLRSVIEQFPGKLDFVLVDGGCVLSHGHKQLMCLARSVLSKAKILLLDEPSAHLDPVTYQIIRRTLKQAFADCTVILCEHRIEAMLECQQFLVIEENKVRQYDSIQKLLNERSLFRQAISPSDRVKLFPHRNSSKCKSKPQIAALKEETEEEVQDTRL

Row | EC30 | Structure (SMILES)
1 | +++ (“+++” means <3 uM) | Cc1cc(C)c(Oc2nc(-c3cnc(N4CCCC4)nc3)ccc2C(=O)NS(=O)(=O)c2cccc(N)n2)c(C)c1 [Compound 1275, N-[(6-amino-2-pyridyl)sulfonyl]-6-(2-pyrrolidin-1-ylpyrimidin-5-yl)-2-(2,4,6-trimethylphenoxy)pyridine-3-carboxamide]
2 | +++ (“+++” means <3 uM) | COc1cccc(-c2ccc(C(=O)NS(=O)(=O)c3ccc[nH]c3=O)c(N3C[C@@H](C)CC3(C)C)n2)c1 [Compound 1927, 6-(3-methoxyphenyl)-N-[(2-oxo-1H-pyridin-3-yl)sulfonyl]-2-[(4S)-2,2,4-trimethylpyrrolidin-1-yl]pyridine-3-carboxamide]
3 | +++ (“+++” means <3 uM) | CCOc1cc(C)cc(-c2ccc(C(=O)NS(=O)(=O)c3ccc[nH]c3=O)c(N3C[C@@H](C)CC3(C)C)n2)n1 [Compound 1745, 6-(6-ethoxy-4-methyl-2-pyridyl)-N-[(2-oxo-1H-pyridin-3-yl)sulfonyl]-2-[(4S)-2,2,4-trimethylpyrrolidin-1-yl]pyridine-3-carboxamide]
4 | +++ (“+++” means <3 uM) | Cc1cc(C)c(Oc2nc(-c3ccc(C(C)C)cc3)ccc2C(=O)NS(=O)(=O)c2ccc[nH]c2=O)c(C)c1 [Compound 1002, 6-(4-isopropylphenyl)-N-[(2-oxo-1H-pyridin-3-yl)sulfonyl]-2-(2,4,6-trimethylphenoxy)pyridine-3-carboxamide]
5 | +++ (“+++” means <3 uM) | CC1CN(c2ncccc2C(=O)NS(=O)(=O)c2cccc(NC3CCC(C(C)(C)C)CC3)n2)C(C)(C)C1 (stereo not shown) [Compound 1971, N—[[6-[(4-tert-butylcyclohexyl)amino]-2-pyridyl]sulfonyl]-2-(2,2,4-trimethylpyrrolidin-1-yl)pyridine-3-carboxamide]
6 | +++ (“+++” means <3 uM) | CC(C)Oc1ccc(C(=O)NS(=O)(=O)c2cccc(N)n2)c(N2C[C@@H](C)CC2(C)C)n1 [Compound 1573, N-[(6-amino-2-pyridyl)sulfonyl]-6-isopropoxy-2-[(4S)-2,2,4-trimethylpyrrolidin-1-yl]pyridine-3-carboxamide]
7 | ++ (“++” means between 3 uM and 10 uM) | CCOc1cccc2c1CN(Cc1ccc(F)cc1)C2(C)C(=O)NS(=O)(=O)c1cccc(N)n1 (stereo not shown) [Compound 1433, N-[(6-amino-2-pyridyl)sulfonyl]-4-ethoxy-2-[(4-fluorophenyl)methyl]-1-methyl-isoindoline-1-carboxamide]
8 | +++ (“+++” means <3 uM) | CCC1CCCN1c1nc(-c2ccc(OC(C)C)nc2)ccc1C(=O)NS(=O)(=O)c1cccc(N)n1 (stereo not shown) [Compound 1087, N-[(6-amino-2-pyridyl)sulfonyl]-2-(2-ethylpyrrolidin-1-yl)-6-(6-isopropoxy-3-pyridyl)pyridine-3-carboxamide]
9 | +++ (“+++” means <3 uM) | Cc1cc(C)c(Oc2nc(C3CCCCC3)ccc2C(=O)NS(=O)(=O)c2cccc(N)n2)c(C)c1 [Compound 1131, N-[(6-amino-2-pyridyl)sulfonyl]-6-cyclohexyl-2-(2,4,6-trimethylphenoxy)pyridine-3-carboxamide]
10 | +++ (“+++” means <3 uM) | C[C@@H]1CN(c2nc(-c3cc(F)cc(OCC(C)(C)O)c3)ccc2C(=O)NS(=O)(=O)c2cccc(N)n2)C(C)(C)C1 [Compound 1424, N-[(6-amino-2-pyridyl)sulfonyl]-6-[3-fluoro-5-(2-hydroxy-2-methyl-propoxy)phenyl]-2-[(4S)-2,2,4-trimethylpyrrolidin-1-yl]pyridine-3-carboxamide]
11 | +++ (“+++” means <3 uM) | Cc1ccc(Oc2nc3c(cc2C(=O)NS(=O)(=O)c2cc[nH]n2)CCCC3(C)C)c(C)c1 [Compound 1246, 2-(2,4-dimethylphenoxy)-8,8-dimethyl-N-(1H-pyrazol-3-ylsulfonyl)-6,7-dihydro-5H-quinoline-3-carboxamide]
12 | +++ (“+++” means <3 uM) | Cc1cc(C)c(Oc2nc(-c3ccccc3Cl)ccc2C(=O)NS(=O)(=O)c2cccc(N)n2)c(C)c1 [Compound 1221, N-[(6-amino-2-pyridyl)sulfonyl]-6-(2-chlorophenyl)-2-(2,4,6-trimethylphenoxy)pyridine-3-carboxamide]
13 | ++ (“++” means between 3 uM and 10 uM) | CC1CN(c2nc(-c3ccnc(C(C)C)c3)ccc2C(=O)NS(=O)(=O)c2cccc(N)n2)C(C)(C)C1 (stereo not shown) [Compound 1262, N-[(6-amino-2-pyridyl)sulfonyl]-6-(2-isopropyl-4-pyridyl)-2-(2,2,4-trimethylpyrrolidin-1-yl)pyridine-3-carboxamide]
14 | ++ (“++” means between 3 uM and 10 uM) | COCCOCc1cccc(-c2cnc(N3CC(C)CC3(C)C)c(C(=O)NS(=O)(=O)c3cccc(N)n3)c2)c1 (stereo not shown) [Compound 1943, N-[(6-amino-2-pyridyl)sulfonyl]-5-[3-(2-methoxyethoxymethyl)phenyl]-2-(2,2,4-trimethylpyrrolidin-1-yl)pyridine-3-carboxamide]
15 | +++ (“+++” means <3 uM) | COc1cc(C)c(-c2ccc(C(=O)NS(=O)(=O)c3cccc(N)n3)c(N3CC(C)CC3(C)C)n2)cc1C (stereo not shown) [Compound 1259, N-[(6-amino-2-pyridyl)sulfonyl]-6-(4-methoxy-2,5-dimethyl-phenyl)-2-(2,2,4-trimethylpyrrolidin-1-yl)pyridine-3-carboxamide]
16 | ++ (“++” means between 3 uM and 10 uM) | CC1(C)C(CC2CC2)CCN1c1ncccc1C(=O)NS(=O)(=O)c1cccc(N)n1 (stereo not shown) [Compound 1794, N-[(6-amino-2-pyridyl)sulfonyl]-2-[3-(cyclopropylmethyl)-2,2-dimethyl-pyrrolidin-1-yl]pyridine-3-carboxamide]
17 | +++ (“+++” means <3 uM) | CC1CN(c2ncc(-c3cc(Cl)cc(Cl)c3)cc2C(=O)NS(=O)(=O)c2cccc(N)n2)C(C)(C)C1 (stereo not shown) [Compound 1721, N-[(6-amino-2-pyridyl)sulfonyl]-5-(3,5-dichlorophenyl)-2-(2,2,4-trimethylpyrrolidin-1-yl)pyridine-3-carboxamide]
18 | ++ (“++” means between 3 uM and 10 uM) | CCC(Oc1nc(C(C)(C)C)ccc1C(=O)NS(=O)(=O)c1cccc(N)n1)c1ccccc1 (stereo not shown) [Compound 1045, N-[(6-amino-2-pyridyl)sulfonyl]-6-tert-butyl-2-(1-phenylpropoxy)pyridine-3-carboxamide]
19 | ++ (“++” means between 3 uM and 10 uM) | COc1c(C)cccc1-c1ccc(C(=O)NS(=O)(=O)c2ccc[nH]c2=O)c(N2C[C@@H](C)CC2(C)C)n1 [Compound 1880, 6-(2-methoxy-3-methyl-phenyl)-N-[(2-oxo-1H-pyridin-3-yl)sulfonyl]-2-[(4S)-2,2,4-trimethylpyrrolidin-1-yl]pyridine-3-carboxamide]
20 | +++ (“+++” means <3 uM) | CC(C)Oc1ccc(-c2ccc(C(=O)NS(=O)(=O)c3cccc(N)n3)c(N3CC4CCCC4C3)n2)cn1 (stereo not shown) [Compound 1107, 2-(3,3a,4,5,6,6a-hexahydro-1H-cyclopenta[c]pyrrol-2-yl)-N-[(6-amino-2-pyridyl)sulfonyl]-6-(6-isopropoxy-3-pyridyl)pyridine-3-carboxamide]
21 | ++ (“++” means between 3 uM and 10 uM) | COc1ccc(-c2ccc(C(=O)NS(=O)(=O)c3ccc[nH]c3=O)c(Oc3c(C)cc(C)cc3C)n2)c(F)c1 [Compound 839, 6-(2-fluoro-4-methoxy-phenyl)-N-[(2-oxo-1H-pyridin-3-yl)sulfonyl]-2-(2,4,6-trimethylphenoxy)pyridine-3-carboxamide]
22 | +++ (“+++” means <3 uM) | CCOc1cccc(-c2ccc(C(=O)NS(=O)(=O)c3cccnc3N)c(N3C[C@@H](C)CC3(C)C)n2)c1 [Compound 1822, N-[(2-amino-3-pyridyl)sulfonyl]-6-(3-ethoxyphenyl)-2-[(4S)-2,2,4-trimethylpyrrolidin-1-yl]pyridine-3-carboxamide]

Row | Structure (SMILES) | EC30
23 | CC(C)COc1cc(F)cc(-c2ccc(C(=O)NS(=O)(=O)c3cccc(N)n3)c(N3CC(C)CCC3C)n2)c1 (single isomer, unassigned) [Compound 1993, N-[(6-amino-2-pyridyl)sulfonyl]-2-(2,5-dimethyl-1-piperidyl)-6-(3-fluoro-5-isobutoxy-phenyl)pyridine-3-carboxamide] | +++ (“+++” means <3 uM)
24 | CC(C)COc1cc(F)cc(-c2ccc(C(=O)NS(=O)(=O)c3ccccc3O)c(N3C[C@@H](C)CC3(C)C)n2)c1 [Compound 1836, 6-(3-fluoro-5-isobutoxy-phenyl)-N-(2-hydroxyphenyl)sulfonyl-2-[(4S)-2,2,4-trimethylpyrrolidin-1-yl]pyridine-3-carboxamide] | +++ (“+++” means <3 uM)
25 | CC(C)COc1cc(F)cc(-c2nc(N3C[C@H](C)CC3(C)C)ccc2C(=O)NS(=O)(=O)c2cccc(N)n2)c1 [Compound 1385, N-[(6-amino-2-pyridyl)sulfonyl]-2-(3-fluoro-5-isobutoxy-phenyl)-6-[(4R)-2,2,4-trimethylpyrrolidin-1-yl]pyridine-3-carboxamide] | +++ (“+++” means <3 uM)
26 | COC1CCCN(S(=O)(=O)NC(=O)c2ccc(-c3cc(F)cc(OCC(C)C)c3)nc2N2C[C@@H](C)CC2(C)C)C1 (stereo partly drawn) [Compound 1545, 6-(3-fluoro-5-isobutoxy-phenyl)-N-[(3-methoxy-1-piperidyl)sulfonyl]-2-[(4S)-2,2,4-trimethylpyrrolidin-1-yl]pyridine-3-carboxamide] | +++ (“+++” means <3 uM)
27 | Cc1cc(C)c(Oc2nc(OC(C)(C)C)ccc2C(=O)NS(=O)(=O)c2cccc(N)n2)c(C)c1 [Compound 1070, N-[(6-amino-2-pyridyl)sulfonyl]-6-tert-butoxy-2-(2,4,6-trimethylphenoxy)pyridine-3-carboxamide] | +++ (“+++” means <3 uM)
28 | CC(C)COc1cc(F)cc(-c2ccc(C(=O)NS(=O)(=O)c3cccc(N)n3)c(C3=CC(C)(C)CC3(C)C)n2)c1 [Compound 1502, N-[(6-amino-2-pyridyl)sulfonyl]-6-(3-fluoro-5-isobutoxy-phenyl)-2-(3,3,5,5-tetramethylcyclopenten-1-yl)pyridine-3-carboxamide] | +++ (“+++” means <3 uM)
